Reference: article PMC7590976, “Detection of Active Granzyme A in NK92 Cells with Fluorescent Activity-Based Probe” (Journal of Medicinal Chemistry, 2020)

Legend:
[1] = test system: GrA in NK92 cells; experiment: SK15.5 cell membrane permeability assay / GrA labeling in live NK92 cells; format: cell-based, human; conditions: SK15I 10 μM, 1 h, prior to 1 μM SK15.5
Experimental: (B) SK15.5 probe cell permeability. […] The results represent two biological replicates.
We noticed a strongly labeled species within 30 min, and the intensity increased until 2 h (Figure 5B). […] As an additional control, immunolabeling was performed and confirmed the selective binding of the probe with GrA (for full size blots, please see Figure S3).
As a control, GrA was preinhibited with 10 μM (final concentration) SK15I and incubated for 1 h at 37 °C, and untreated samples were simultaneously incubated. At the end of every time point, the cells were centrifuged, washed twice with DPBS, centrifuged and treated with 100 μL of 1× SDS/DTT solution. Afterward, the samples were sonicated (10 kHz for 10 s) and loaded onto a 4–12% Bis-Tris 10-well gel (Invitrogen). SDS-PAGE was run at 165 V for 37 min, and membrane transfer (10 V, 60 min) was subsequently performed.

[2] = molecular target: T1, GrA (Homo sapiens, UniProt P12544); experiment: Second-order inhibition rate constant kobs/I toward GrA, pseudo-first-order conditions; format: biochemical; conditions: GrA; versus 2000 M^–1 s^–1
T1 construct: made in house; host or cells: Pichia pastoris
T1 sequence (P12544 29-262): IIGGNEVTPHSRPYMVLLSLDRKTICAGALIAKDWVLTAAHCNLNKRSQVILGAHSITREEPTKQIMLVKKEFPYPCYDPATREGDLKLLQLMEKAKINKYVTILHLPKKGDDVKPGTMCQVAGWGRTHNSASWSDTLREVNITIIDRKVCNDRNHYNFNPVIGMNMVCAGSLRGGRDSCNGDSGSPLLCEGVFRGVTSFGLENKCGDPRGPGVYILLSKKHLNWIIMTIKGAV
Experimental: We calculated the apparent second-order rate constants for inhibition (kobs(app)/I) of GrA-mediated SK15I under pseudo first-order conditions by serially diluting the new inhibitor in the range of 714–333 nM with a constant optimal substrate (SK15) concentration of 10 μM (Figure 3B).
The second-order inhibition rate constant (kobs/I expressed in M^–1 s^–1) toward GrA was measured under pseudo-first-order kinetic conditions. Ten microliters of substrate (SK15) was mixed with varying inhibitor or probe concentrations and incubated at 37 °C for 15 min. […] Experiments are presented as the average of at least three experiments with standard deviation.

[3] = test system: MDA-MB-231 cells; conditions: MDA-MB-231, 24 h, MTS at 490 nm, 1 nM to 10 μM tested, duplicate
[4] = test system: hNE; experiment: Residual activity assay, hNE; format: biochemical, human; conditions: 3.3 nM hNE preincubated with 10 μM compound 30 min 37 °C; substrate Ac-Arg(NO)2-Glu(Bzl)-Oic-Abu-ACC
Experimental: (§1) We wondered whether the selectivity of our SK15-based molecules for GrA would be maintained by substrate structure modifications, such as replacing ACC with a diphenyl phosphonate warhead and changing the N-terminus from acetyl to the cyanine derivative Cy5.
(§2) As a control, enzymes without inhibitor and probe were tested.

[5] = molecular target: T2, GrB (Homo sapiens, UniProt P10144); experiment: Residual activity assay, GrB; format: biochemical; conditions: 18 nM GrB preincubated with 10 μM compound 30 min 37 °C; 200 μM GrBref
T2 construct: made in house; host or cells: Pichia pastoris
T2 sequence (P10144 21-247): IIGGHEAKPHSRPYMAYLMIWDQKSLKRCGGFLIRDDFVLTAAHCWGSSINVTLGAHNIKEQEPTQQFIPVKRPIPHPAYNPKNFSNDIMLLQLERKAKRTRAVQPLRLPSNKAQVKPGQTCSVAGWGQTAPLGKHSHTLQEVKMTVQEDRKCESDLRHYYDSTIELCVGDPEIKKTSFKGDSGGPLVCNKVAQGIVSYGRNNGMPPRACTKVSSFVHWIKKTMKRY
Experimental: as §1, §2

[6] = molecular target: T3, GrK (Homo sapiens, UniProt P49863); experiment: Residual activity assay, GrK; format: biochemical; conditions: 488 nM GrK preincubated with 10 μM compound 30 min 37 °C; 200 μM GrKref
T3 construct: made in house; host or cells: Pichia pastoris
T3 sequence (P49863 27-264): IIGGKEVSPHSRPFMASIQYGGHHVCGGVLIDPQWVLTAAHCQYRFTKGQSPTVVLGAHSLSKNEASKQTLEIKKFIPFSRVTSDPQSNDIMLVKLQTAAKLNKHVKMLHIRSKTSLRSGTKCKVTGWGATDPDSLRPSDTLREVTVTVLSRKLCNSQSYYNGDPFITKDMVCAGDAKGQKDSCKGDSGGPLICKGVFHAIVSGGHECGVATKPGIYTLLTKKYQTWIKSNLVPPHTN
Experimental: as §1, §2

[7] = test system: PR3; experiment: Residual activity assay, PR3; format: biochemical; conditions: 3.4 nM PR3 preincubated with 10 μM compound 30 min 37 °C; substrate Ac-Glu(O-Bzl)-Lys(Ac)-Hyp(Bzl)-Nva-ACC
Experimental: as §1, §2

[8] = test system: GrM; experiment: Residual activity assay, GrM; format: biochemical, human; conditions: 74 nM GrM preincubated with 10 μM compound 30 min 37 °C; substrate Ac-Lys-Val-Pro-Leu-ACC
Experimental: as §1, §2

[9] = molecular target: T1, GrA; experiment: In-gel detection of recombinant GrA with SK15.5 (SDS-PAGE); format: binding; conditions: SK15I 1 μM, 1 h, 37 °C, then SK15.5 500 nM 1 h
Experimental: Next, we tested the utility of our fluorescent probe for the in-gel detection of active GrA in test samples. […] We then ran a simple SDS-PAGE assay to detect labeled GrA (Figure 4A). […] In our hands, the probe bound to the enzyme, as indicated by the fluorescent 35 kDa species, after the minimal incubation time (5 min). […] The optimal concentration was 500 nM (strong signal) (Figure 4B).
(A) Incubation time of SK15.5 with enzyme optimization. […] (D) GrA in-gel detection in NK92 cell lysates. […] The results are representative of at least 2 replicates.
In contrast to the closely related GrB, GrH, GrM, and GrK, GrA is a homodimer formed by stable disulfide-linked subunits.[26] Since the subunits are oriented in opposite directions, the surrounding area may form an exosite.[26]
In the incubation time optimization assay, the enzyme and probe concentrations were constant (250 nM), and the incubation time ranged from 0 to 120 min. […] Enzyme was incubated with probe in a volume of 80 μL, followed by the reduction with 40 μL of 3 × SDS/DTT for 5 min at 95 °C. Samples were centrifuged (3 min, 4500g), and 40 μL of each sample was run on 4–12% Bis-Tris 10-well gels (Invitrogen). The first well was loaded with 2 μL of the protein marker PageRuler Plus Prestained Protein Ladder (Thermo Scientific). Electrophoresis was conducted at 165 V for 37 min at room temperature. […] Total sample volume was 80 μL, to which 40 μL of 3× SDS/DTT was added and boiled for 5 min at 95 °C. Samples were centrifuged (3 min, 4500g), and 40 μL of each sample was run on 4–12% Bis-Tris 10-well gels (Invitrogen). Each form of the enzyme without SK15.5 and probe itself were run as controls. The first well was loaded with 2 μL of protein marker PageRuler Plus Prestained Protein Ladder (Thermo Scientific). Electrophoresis and membrane transfer were conducted in the same manner as above.

[10] = test system: GrA; experiment: Residual activity assay, GrA preinhibited with SK15I or SK15.5; format: biochemical, human; conditions: substrate SK15; preincubation 30 min, 37 °C
Experimental: as §1, §2

## MeOSuc-Tic-Gly-Oic-Arg^P(OPh)2 [SK15I]
[1]
  effect of inhibitor pretreatment on SK15.5 probe binding in live cells (in words): substantial decrease in probe binding
[2]
  kobs/I relative to the reference inhibitor: approximately 85 fold
[3]
  concentration above which cytotoxic: > 10 µM
[4]
  inhibition of hNE: less than 20%
[5]
  inhibition of GrB: less than 20%
[6]
  inhibition of GrK: less than 20%
[7]
  inhibition of PR3: less than 20%
[8]
  inhibition of GrM: less than 20%
[9]
  effect of preinhibition with inhibitor on SK15.5 probe binding to GrA (in words): prevented probe binding
[10]
  residual GrA activity after preinhibition (in words): completely blocked
